# Paper PMC6424957 (Scientific Reports, 2019)
# Experiments:
# [1] = target: T1, peripheral anionic site (PAS) of EeAChE (Electrophorus electricus, UniProt O42275); format: binding; conditions: EeAChE 7 μM, propidium iodide 8 μM
# T1 construct: from human erythrocyte and E. electricus (EeAChE) (type VI-S); purchased Sigma-Aldrich (Germany) type VI-S; host or cells: Electrophorus electricus tissue
# From the text: The fluorescent assay used to evaluate competitive propidium iodide displacement from the PAS of AChE is commonly used as primary screening method of AChE pro-aggregation activity inhibitors. Propidium iodide is a selective ligand for the PAS of AChE responsible for Aβ binding.
# EeAChE was used owing to its high degree of purification, high activity, and lower cost than human AChE. […] The fluorescence intensity of propidium iodide bound with AChE increases several times.
# To determine the degree of displacement (% displacement) of propidium iodide from the PAS of AChE, EeAChE (final concentration 7 μM) was incubated with the test compound at a concentration of 3 and 20 μM in 1 mM Tris-HCl buffer pH 8.0, 25 °C for 15 min. Then, propidium iodide solution (final concentration 8 μM) was added, the samples were incubated for 15 min and the fluorescence spectrum (530 nm (excitation) and 600 nm (emission)) was taken. Donepezil and tacrine were used as reference compounds. The blank contained propidium iodide of the same concentration in 1 mM Tris-HCl buffer pH 8.0. The measurements were carried out in triplicate on a microplate reader FLUOStar Optima (BMG Labtech Germany).
# The degree of displacement (% displacement) of propidium iodide from the peripheral anionic site of AChE was calculated by the following formula: %Displacement=100−(IFAChE+Propidium+inhibitor/IFAChE+Propidium)[…], where IFAChE + Propidium is the fluorescence intensity of the propidium associated with AChE in the absence of the test compound (taken as 100%), and IFAChE + Propidium + inhibitor is the fluorescence intensity of the propidium associated with AChE in the presence of the test compound.
# [2] = target: T2, Electrophorus electricus AChE (EeAChE) (Electrophorus electricus, UniProt O42275); assay: biochemical; format: biochemical
# T2 construct: from human erythrocyte and E. electricus (EeAChE) (type VI-S); purchased Sigma-Aldrich (Germany) type VI-S; host or cells: Electrophorus electricus tissue
# Procedure: (§1) Acetylcholinesterase (AChE, EC 3.1.1.7, from human erythrocyte and E. electricus (EeAChE) (type VI-S), butyrylcholinesterase (BChE, EC 3.1.1.8, from equine serum), carboxylesterase (CaE, EC 3.1.1.1, from porcine liver), acetylthiocholine iodide (ATCh), butylthiocholine iodide (BTCh), 5,5′-dithiobis-(2-nitrobenzoic acid) (DTNB), 4-nitrophenyl acetate (4-NPA), were purchased from Sigma-Aldrich (Germany).
# (§2) AChE and BChE activities were measured by the Ellman method as described earlier. The assay solution consisted of 0.1 M K/Na phosphate buffer pH 7.5, 25 °C with the addition of 0.33 mM DTNB, 0.02 unit/mL of AChE or BChE, and 1 mM of substrate (ATCh or BTCh, respectively). The assays were carried out with a reagent blank containing all components except AChE or BChE to account for non-enzymatic hydrolysis of substrate. In addition, an enzyme blank was included that contained all components except substrate to account for non-substrate sulfhydryl groups. […] The assay solution consisted of 0.1 M K/Na phosphate buffer pH 8.0, 25 °C with the addition of 1 mM 4-nitrophenyl acetate and 0.02 unit/mL of CaE. Assays were carried out with a blank containing all components except CaE.
# (§3) The test compounds were dissolved in DMSO; the incubation mixture contained 2% (v/v) of the solvent. […] The test compounds were added to the assay solution and preincubated at 25°C with the enzymes for 5 min followed by the addition of substrate. A parallel control was made for the assay solution with no inhibitor. […] Each experiment was performed three times. The results were expressed as the mean ± SEM. The reaction rates in the presence and absence of inhibitor were compared, and the percent of residual enzyme activity due to the presence of test compounds was calculated.
# [3] = target: T3, human erythrocyte acetylcholinesterase (AChE) (Homo sapiens, UniProt P22303); assay: biochemical; format: biochemical; conditions: mean ± SEM, n ≥ 3
# T3 construct: Acetylcholinesterase (AChE, EC 3.1.1.7, from human erythrocyte); purchased Sigma-Aldrich (Germany); host or cells: human erythrocytes
# Procedure: as §1, §2, §3
# [4] = target: T4, equine serum butyrylcholinesterase (BChE) (Equus caballus, UniProt P81908); assay: biochemical; format: biochemical; conditions: mean ± SEM, n ≥ 3
# T4 construct: butyrylcholinesterase (BChE, EC 3.1.1.8, from equine serum); purchased Sigma-Aldrich (Germany); host or cells: equine serum
# Procedure: as §1, §2, §3
# [5] = target: T5, porcine liver carboxylesterase (CaE) (Sus scrofa, UniProt Q29550); assay: CaE inhibition (4-nitrophenyl acetate hydrolysis); format: biochemical; conditions: 20 µM, mean ± SEM, n ≥ 3, n.a. = not active at 20 µM
# T5 sequence (Q29550 19-566): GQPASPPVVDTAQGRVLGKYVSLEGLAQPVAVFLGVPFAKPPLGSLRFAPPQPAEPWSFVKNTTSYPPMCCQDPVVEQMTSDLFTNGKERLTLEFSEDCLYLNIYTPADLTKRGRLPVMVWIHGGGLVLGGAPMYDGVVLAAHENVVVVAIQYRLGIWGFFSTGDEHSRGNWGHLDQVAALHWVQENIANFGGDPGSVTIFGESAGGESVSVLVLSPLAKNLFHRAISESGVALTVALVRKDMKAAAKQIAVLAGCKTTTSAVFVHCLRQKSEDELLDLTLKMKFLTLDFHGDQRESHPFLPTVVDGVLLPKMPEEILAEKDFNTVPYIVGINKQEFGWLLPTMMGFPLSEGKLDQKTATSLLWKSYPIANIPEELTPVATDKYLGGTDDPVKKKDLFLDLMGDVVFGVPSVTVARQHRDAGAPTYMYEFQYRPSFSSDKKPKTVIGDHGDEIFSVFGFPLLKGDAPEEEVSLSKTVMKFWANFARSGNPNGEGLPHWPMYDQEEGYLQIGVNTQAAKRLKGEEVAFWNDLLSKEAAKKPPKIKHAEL
# Procedure: as §1, §2, §3
# [6] = Oxygen radical absorbance capacity assay (ORAC-FL); conditions: ORAC-FL, AAPH, fluorescein, 37 °C, pH 7.4; Trolox taken as 1
# Procedure: The ability of the conjugates to reduce the amount of peroxyl radicals as another characteristic of the antioxidant activity of the compounds was determined using the oxygen radical absorbance capacity by fluorescence (ORAC-FL) method using fluorescein (FL) as a fluorescent probe. The method is based on measuring the decrease in the intensity of fluorescence with time, which characterizes the degree of decay of the fluorescent probe under the influence of peroxyl radicals. In the presence of antioxidants, the degree of decay of the fluorescent probe decreases and, accordingly, the fluorescence time increases.
# The ability of compounds to scavenge peroxyl radicals was characterized by the value of the Trolox equivalent (TE, μmol of Trolox per μmol of the tested compound), which is equal to the ratio of the Trolox concentration to the tested compound concentration having the same fluorescence intensity. Peroxyl radical scavenging capacity of Trolox is taken as one (1)[67],[68].
# 2,2′-Azobis-(amidinopropane) dihydrochloride (AAPH), (±)-6-hydroxy-2,5,7,8-tetramethylchromane-2-carboxylic acid (Trolox) and fluorescein (FL) were purchased from Sigma-Aldrich. The reaction was carried out at 37 °C in 75 mM K,Na phosphate buffer (pH 7.4), and the final reaction mixture was 200 µL. The tested compounds and Trolox standard were dissolved in DMSO to 10 mM and further diluted in 75 mM K,Na phosphate buffer (pH 7.4). […] The blank was composed of 20 µL 75 mM K,Na phosphate buffer (pH 7.4) containing 2% (v/v) DMSO, 120 µL FL and 60 µL AAPH, and was added in each assay. Antioxidant (the test compound or Trolox, 20 µL) and FL (120 µL, final concentration: 70 nM) solutions were placed in a black 96-well microplate and were pre-incubated for 15 min at 37 °C. AAPH solution (60 µL, final concentration 12 mM) was then added rapidly using a multichannel pipette. The fluorescence was recorded every minute for 100 min. A Trolox standard curve was also obtained in each assay. All reactions were carried out in triplicate and at least three different assays were performed for each sample.
# Antioxidant curves (fluorescence vs. time) were first normalized to the curve of the blank (without antioxidant) corresponding to the same assay, and the area under the fluorescence decay curve (AUC) was calculated. The net AUC corresponding to a sample was calculated by subtracting the AUC corresponding to the blank. Regression equations were calculated by plotting the net AUC against the antioxidant concentration. The ORAC value was obtained by dividing the slope of the latter curve by the slope of the Trolox curve obtained in the same assay. […] Data were expressed as means ± SEM.
# [7] = system: isolated rat liver mitochondria; assay: Inhibition of iron-induced lipid peroxidation (TBARs); conditions: read-out: IC50 of Fe3+-induced LP, LP induced by 0.5 mM Fe3+, mean ± SEM, n ≥ 3
# [8] = ABTS radical cation scavenging assay; conditions: 1 h incubation; for ABTS·+ scavenging activity, TEAC value: Trolox equivalent antioxidant capacity, ratio of slopes compound/Trolox
# Procedure: This assay is based on the production of a stable dark green ABTS cation-radical (ABTS^·+) by incubating ABTS ([2,2′-azino-bis(3-eth-ylbenzothiazoline-6-sulfonic acid diammonium salt)) with potassium persulfate. […] The ABTS radical-scavenging activity of the compounds was measured according to an established method[66] with some modifications, at 30 °С in the dark; incubation time was 1 hour. […] The results were expressed as TEAC values (Trolox equivalent antioxidant capacity) calculated by dividing the slope of ABTS^·+ concentration decrease versus the antioxidant concentration by the slope of the Trolox plot.
# Radical scavenging activity of the compounds was assessed using an ABTS radical decolorization assay[66] with some minor modifications. ABTS (2,2′-azino-bis-(3-ethylbenzothiazoline-6-sulfonic acid) diammonium salt) was purchased from TCI (Tokyo, Japan); potassium persulfate (di-potassium peroxodisulfate) and Trolox (6-hydroxy-2,5,7,8-tetramethychroman-2-carboxylic acid were obtained from Sigma-Aldrich Chemical Co. (St. Louis, MO, USA). Ethanol was HPLC grade. Aqueous solutions were prepared using deionized water.
# Trolox was used as the antioxidant standard. A 5 mM solution of Trolox was prepared in DMSO for use as stock. Fresh working solutions of known concentrations (1–100 μM) were prepared on the day of experiments and used for calibration and as positive controls for ABTS radical cation (ABTS^•+) scavenging activity. ABTS was dissolved in deionized water to a 7 mM concentration. […] Fresh working ABTS^•+ solution was prepared for each assay.
# The radical scavenging capacity of the compounds was analyzed by mixing 10 μl of compound with 240 μl of ABTS^•+ working solution. […] Ethanol blanks were run in each assay. Values were obtained from three replicates of each sample and three independent experiments.
# Antioxidant capacity as a Trolox equivalent (TEAC values) was determined as the ratio between the slopes obtained from the linear correlation for concentrations of test compounds and Trolox with absorbance of ABTS radical.
# T1 sequence (O42275 24-633): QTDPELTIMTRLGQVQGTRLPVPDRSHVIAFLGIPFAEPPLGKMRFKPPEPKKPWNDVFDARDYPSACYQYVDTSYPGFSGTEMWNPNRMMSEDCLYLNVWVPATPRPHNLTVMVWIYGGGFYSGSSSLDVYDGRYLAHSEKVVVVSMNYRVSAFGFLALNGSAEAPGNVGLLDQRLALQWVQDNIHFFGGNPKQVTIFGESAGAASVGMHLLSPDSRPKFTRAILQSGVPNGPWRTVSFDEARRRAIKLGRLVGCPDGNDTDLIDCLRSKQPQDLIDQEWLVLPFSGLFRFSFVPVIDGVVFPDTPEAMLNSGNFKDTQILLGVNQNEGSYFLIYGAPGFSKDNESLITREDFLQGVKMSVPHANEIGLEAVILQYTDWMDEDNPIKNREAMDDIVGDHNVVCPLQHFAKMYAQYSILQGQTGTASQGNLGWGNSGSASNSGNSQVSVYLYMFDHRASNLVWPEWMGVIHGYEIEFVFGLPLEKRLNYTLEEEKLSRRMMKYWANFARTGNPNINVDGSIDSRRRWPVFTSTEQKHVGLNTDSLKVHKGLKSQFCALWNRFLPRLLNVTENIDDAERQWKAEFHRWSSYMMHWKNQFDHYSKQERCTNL
# T3 sequence (P22303 32-617 isoform P22303-2 limits assumed): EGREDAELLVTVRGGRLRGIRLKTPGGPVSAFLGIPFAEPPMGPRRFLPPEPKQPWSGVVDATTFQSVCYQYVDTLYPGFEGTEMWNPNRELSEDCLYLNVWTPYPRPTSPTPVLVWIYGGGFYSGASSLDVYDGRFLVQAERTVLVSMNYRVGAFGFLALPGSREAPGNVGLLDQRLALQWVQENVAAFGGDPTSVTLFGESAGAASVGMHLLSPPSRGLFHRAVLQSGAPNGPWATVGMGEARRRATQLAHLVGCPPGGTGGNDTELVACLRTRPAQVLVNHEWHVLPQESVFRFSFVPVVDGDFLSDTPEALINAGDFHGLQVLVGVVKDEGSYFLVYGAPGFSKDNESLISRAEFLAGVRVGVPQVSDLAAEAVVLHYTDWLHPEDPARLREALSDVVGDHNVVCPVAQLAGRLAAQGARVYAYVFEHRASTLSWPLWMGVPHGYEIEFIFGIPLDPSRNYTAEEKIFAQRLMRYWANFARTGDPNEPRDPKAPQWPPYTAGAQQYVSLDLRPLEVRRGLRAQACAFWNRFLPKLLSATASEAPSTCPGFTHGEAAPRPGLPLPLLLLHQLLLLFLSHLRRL
# T2 sequence (O42275 24-633): as the sequence (O42275 24-633) above
# T4 sequence (P81908 whole entry): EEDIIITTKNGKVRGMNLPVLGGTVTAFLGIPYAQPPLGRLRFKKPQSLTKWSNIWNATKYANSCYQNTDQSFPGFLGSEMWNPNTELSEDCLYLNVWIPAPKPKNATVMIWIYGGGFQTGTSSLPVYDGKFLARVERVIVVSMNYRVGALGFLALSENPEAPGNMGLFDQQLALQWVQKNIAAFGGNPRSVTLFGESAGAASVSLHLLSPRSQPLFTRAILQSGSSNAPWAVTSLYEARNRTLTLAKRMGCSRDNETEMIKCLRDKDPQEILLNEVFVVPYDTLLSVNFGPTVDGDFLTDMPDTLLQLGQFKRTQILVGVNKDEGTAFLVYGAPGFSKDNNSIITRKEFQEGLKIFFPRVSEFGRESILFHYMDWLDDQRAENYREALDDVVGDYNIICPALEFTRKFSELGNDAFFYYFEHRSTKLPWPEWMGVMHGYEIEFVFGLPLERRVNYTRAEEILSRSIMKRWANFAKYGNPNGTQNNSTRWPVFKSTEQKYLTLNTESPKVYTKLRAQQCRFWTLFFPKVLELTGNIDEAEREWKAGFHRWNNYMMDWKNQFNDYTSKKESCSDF
SMILES,"% Displacement of propidium iodide, 3 µM ([1]; compound 3 µM)","% Displacement of propidium iodide, 20 µM ([1]; compound 20 µM)",IC50 [2],IC50 [3],IC50 [4],% inhibition of CaE at 20 µM [5],ORAC TE value [6],IC50 [7],"ABTS·+ scavenging activity, TEAC value [8]",IC50 ([8]; concentration reducing ABTS·+ by 50%)
"Cc1ccc2c(c1)c1c(n2CCc2ccc(C)nc2)CCN(C)C1 [Dimebon, reference compound]",2.8 ± 0.2%,6.0 ± 0.5%,32.4 ± 3.5 µM,36.3 ± 3.59 µM,5.76 ± 0.51 µM,n.а.,1.07 ± 0.08 µmol Trolox/ µmol comp.,> 30 µM,0.004,–
"Cc1c(C)c2c(c(C)c1O)CCC(C)(C(=O)O)O2 (stereo not drawn) [Trolox, 6-hydroxy-2,5,7,8-tetramethychroman-2-carboxylic acid, reference compound]",–,–,–,–,–,–,1.0 µmol Trolox/ µmol comp.,–,1.0,20.4 ± 1.7 µM
